Results from patent US20060229299A1, “5ht2c Receptor antagonists in the treatment of schizophrenia” (priority 2003, published 2006).

Assays:
5-HT2C receptor [1] = biological target: 5-HT2C receptor (UniProt P28335); conditions: ref 11 (human and for ritanserin data also rat); cited from earlier work
D1 dopamine receptor = conditions: ref 11 (human and for ritanserin data also rat); cited from earlier work
[2] = biological target: D2-L (long form of D2 receptor) (Homo sapiens, UniProt P14416); conditions: ref 11 (human and for ritanserin data also rat); cited from earlier work
D3 dopamine receptor = D3 dopamine receptor (Homo sapiens, UniProt P35462); conditions: ref 11 (human and for ritanserin data also rat); cited from earlier work
[3] = biological target: mACh, muscarinic acetylcholine receptor; conditions: ref 11 (human and for ritanserin data also rat); cited from earlier work
α1-adrenoceptor = conditions: ref 11 (human and for ritanserin data also rat); cited from earlier work
α2-adrenoceptor = conditions: ref 11 (human and for ritanserin data also rat); cited from earlier work
H1 histamine receptor = H1 histamine receptor (Homo sapiens, UniProt P35367); conditions: ref 11 (human and for ritanserin data also rat); cited from earlier work
sigma, σ receptor = conditions: ref 11 (human and for ritanserin data also rat); cited from earlier work
5-HT2C receptor [4] = biological target: T1, 5-HT2C receptor (Homo sapiens, UniProt P28335); conditions: Table 3; expressed as pKi or pKd values; known affinities; cited from earlier work
T1 sequence (P28335 33-458): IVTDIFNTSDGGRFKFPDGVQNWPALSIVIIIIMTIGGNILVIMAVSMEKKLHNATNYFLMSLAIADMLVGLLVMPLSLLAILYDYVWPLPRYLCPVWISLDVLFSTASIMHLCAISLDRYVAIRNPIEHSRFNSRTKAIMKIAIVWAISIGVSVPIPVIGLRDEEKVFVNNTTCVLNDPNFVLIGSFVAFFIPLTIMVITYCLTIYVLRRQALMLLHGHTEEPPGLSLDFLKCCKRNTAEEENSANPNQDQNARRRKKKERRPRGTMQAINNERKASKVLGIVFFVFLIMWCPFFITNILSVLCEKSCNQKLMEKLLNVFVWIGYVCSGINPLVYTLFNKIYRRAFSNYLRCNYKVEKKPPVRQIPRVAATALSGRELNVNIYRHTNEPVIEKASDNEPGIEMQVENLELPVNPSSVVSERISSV

D2 receptor = D2 receptor (Homo sapiens, UniProt P14416); conditions: Table 3; expressed as pKi or pKd values; known affinities; cited from earlier work
5-HT7 receptor = 5-HT7 receptor (UniProt P34969); conditions: ref 11 (human and for ritanserin data also rat); cited from earlier work
[5] = test system: 5-HT2C receptor relative to 5-HT2A and D2 receptors; experiment: Relative 5-HT2C affinity (formula I, sum of 5-HT2C/5-HT2A and 5-HT2C/D2 affinity ratios); conditions: Table 2; sum of affinity ratios from data of Table 1

D2 receptor, sequence (P14416 whole entry): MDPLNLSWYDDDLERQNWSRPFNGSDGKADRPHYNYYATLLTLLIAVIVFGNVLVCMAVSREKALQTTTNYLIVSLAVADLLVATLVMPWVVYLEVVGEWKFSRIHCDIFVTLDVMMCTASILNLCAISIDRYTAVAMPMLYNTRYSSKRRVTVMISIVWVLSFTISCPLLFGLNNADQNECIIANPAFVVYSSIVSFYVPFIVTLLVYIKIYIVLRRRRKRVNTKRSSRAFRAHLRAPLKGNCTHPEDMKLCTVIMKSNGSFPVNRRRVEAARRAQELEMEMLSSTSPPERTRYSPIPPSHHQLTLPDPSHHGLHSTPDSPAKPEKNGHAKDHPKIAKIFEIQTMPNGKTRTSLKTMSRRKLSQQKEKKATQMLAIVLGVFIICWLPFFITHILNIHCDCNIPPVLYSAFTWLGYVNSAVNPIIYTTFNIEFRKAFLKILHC

(2C/2A) + (2C/D2) [5]: 2.15
SMILES: Cc1nc2sccn2c(=O)c1CCN1CCC(=C(c2ccc(F)cc2)c2ccc(F)cc2)CC1 [Ritanserin]
5-HT2C affinity value (−logKi) (5-HT2C receptor [1]): 9.0^11
D1 affinity value (−logKi) (D1 dopamine receptor): 5.9^11
D2-L affinity value (−logKi) [2]: 7.4^11
D3 affinity value (−logKi) (D3 dopamine receptor): 7.1^11
mACh affinity value (−logKi) [3]: 5.4^11
α1 affinity value (−logKi) (α1-adrenoceptor): 7.5^11
α2 affinity value (−logKi) (α2-adrenoceptor): 7.3^11
H1 affinity value (−logKi) (H1 histamine receptor): 8.2^11
sigma affinity value (−logKi) (sigma, σ receptor): 6.1^11
5-HT2C Affinity (5-HT2C receptor [4]): 9
D2 Affinity (D2 receptor): 7.4
5-HT7 affinity value (−logKi) (5-HT7 receptor): 7.8^11
